In brackets after ≈: the same amount, converted by molar mass. Where two headings read alike, the source gives them in different places.
Assays:
[1] = test system: cancer of the pancreas; conditions: previously untreated patients; cited from earlier work
[2] = test system: pancreatic cancer; conditions: cited from earlier work
[3] = test system: cancer cell lines; assay: IC50 across several different cancer cell lines; type: cell-based; conditions: called predicted
[4] = test system: cats; conditions: cited from earlier work
[5] = test system: VEGF; assay: VEGF secretion by tumor cells; type: cell-based; conditions: FIG. 5
[6] = test system: A549 Sentinel Line; assay: Sentinel Line beta-galactosidase reporter assay (A549); type: cell-based; conditions: 40 hrs; for reporter activity, Gemcitabine-induced stress response: A549 sentinel line, FACS, FIG. 7; for cell death / reporter activity: Sentinel Lines; for reporter activity: FIG. 6
Experimental: The expression level of beta-galactosidase gene in sentinel lines was determined by using a fluorescent substrate fluorescein di-B-D-Galactopyranside (FDG, Marker Gene Tech, #M0250) introduced into cells by hypotonic shock. Cleavage by beta-galactosidase results in the production of free fluorescein, which is unable to cross the plasma membrane and is trapped inside the beta-gal positive cells. Briefly, the cells to be analyzed are trypsinized, and resuspended in PBS containing 2 mM FDG (diluted from a 10 mM stock prepared in 8:1:1 mixture of water: ethanol: DMSO). The cells were then shocked for 4 minutes at 37° C. and transferred to FACS tubes containing cold 1×PBS on ice. Samples were kept on ice for 30 minutes and analyzed by FACS in FL1 channel.
Sentinel Line cells with beta-galactosidase reporter gene were plated at 1×10^5 cells/10 cm dish. […] After 40 hrs, the cells were trypsinized and the expression level of reporter gene was determined by FDG loading.
The reporter activity was measured by FACS analysis.

[7] = cited from earlier work
[8] = cited from earlier work; remark: listed apart in the source
[9] = test system: HIF-1α; assay: HIF-1α induced by L-mimosone under normoxia in Hep3B cells; type: cell-based
Experimental: Abundance of HIF-1α and β-actin was determined by western blotting.

[10] = test system: pancreatic cancer; conditions: cited from earlier work; remark: listed apart in the source
[11] = test system: cancer of the pancreas; conditions: previously treated with 5-FU; cited from earlier work
[12] = test system: rat mammary tumors induced by DMBA; conditions: relative to control group; cited from earlier work
[13] = test system: pancreatic carcinoma cells carrying a K-Ras mutation; conditions: cited from earlier work
[14] = test system: pancreatic lesions; conditions: cited from earlier work
[15] = biological target: geranylgeranyl protein transferase (GGPTase) (Homo sapiens, UniProt P49354+P53609); conditions: cited from earlier work
geranylgeranyl protein transferase (GGPTase), sequence (P53609 whole entry, one chain of several): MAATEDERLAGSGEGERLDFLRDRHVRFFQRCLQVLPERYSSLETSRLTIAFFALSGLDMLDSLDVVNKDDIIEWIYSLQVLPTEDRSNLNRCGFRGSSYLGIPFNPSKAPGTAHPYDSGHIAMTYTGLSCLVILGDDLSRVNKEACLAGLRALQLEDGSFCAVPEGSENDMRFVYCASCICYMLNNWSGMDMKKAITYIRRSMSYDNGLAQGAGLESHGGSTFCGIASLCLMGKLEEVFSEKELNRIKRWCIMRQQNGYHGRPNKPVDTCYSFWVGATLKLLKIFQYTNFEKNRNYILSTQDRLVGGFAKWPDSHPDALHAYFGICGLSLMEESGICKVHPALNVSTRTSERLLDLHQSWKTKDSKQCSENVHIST

[16] = test system: pancreatic tumors; conditions: cited from earlier work
[17] = biological target: farnesyl protein transferase (FPTase) (Homo sapiens, UniProt P49354+P49356); conditions: cited from earlier work
farnesyl protein transferase (FPTase), sequence (P49356 whole entry, one chain of several): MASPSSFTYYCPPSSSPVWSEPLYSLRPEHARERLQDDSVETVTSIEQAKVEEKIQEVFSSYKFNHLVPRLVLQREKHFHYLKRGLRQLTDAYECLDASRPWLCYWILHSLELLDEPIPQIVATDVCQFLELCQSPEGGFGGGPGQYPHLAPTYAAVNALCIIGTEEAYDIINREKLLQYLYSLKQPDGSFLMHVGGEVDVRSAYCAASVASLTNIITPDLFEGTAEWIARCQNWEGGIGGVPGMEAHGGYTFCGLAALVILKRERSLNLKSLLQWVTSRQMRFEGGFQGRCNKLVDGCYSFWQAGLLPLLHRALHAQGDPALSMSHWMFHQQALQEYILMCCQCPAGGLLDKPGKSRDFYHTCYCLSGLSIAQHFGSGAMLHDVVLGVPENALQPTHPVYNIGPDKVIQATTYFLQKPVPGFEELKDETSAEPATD

[18] = test system: end-stage pancreatic cancer; conditions: cited from earlier work
[19] = test system: advanced pancreatic cancer; conditions: in vivo; cited from earlier work
[20] = test system: pancreatic cancer; conditions: 40 patients; cited from earlier work
[21] = test system: C38 colon adenocarcinoma and PO3 pancreatic ductal adenocarcinoma; conditions: in vivo; cited from earlier work

Compound: O=c1[nH]cc(F)c(=O)[nH]1 [5-FU, 5-fluorouracil]
- patients alive at 1 year after starting therapy [1]: 1 in 50
- response rate [2]: less than 20%

Compound: C[C@@H]1O[C@@H](O[C@H]2C[C@@H](O)[C@]3(CO)[C@H]4[C@H](O)C[C@]5(C)[C@@H](C6=CC(=O)OC6)CC[C@]5(O)[C@@H]4CC[C@]3(O)C2)[C@H](O)[C@H](O)[C@H]1O [BNC-1, ouabain]
- IC50 [3]: 9 to 35 ng/mL (≈ 0.0154 to 0.0599 µM)
- toxicity, duodenal administration [4]: 5.3 mg/kg
- secretion of the angiogenesis factor VEGF [5]: inhibits
- toxic serum concentration at day 1 (mice): about 50+21 ng/ml
- therapeutic serum concentration required to achieve >60% TGI (steady state delivery in mice): about 20+15 ng/ml

Compound: C[C@@H]1OC(OC2C=C3CCC4C(CC[C@]5(C)[C@@H](c6ccc(=O)oc6)CC[C@]45O)[C@@]3(C)CC2)[C@H](O)[C@H](O)[C@H]1O (stereo partly drawn) [BNC-4, proscillaridin]
- IC50 [3]: 2 to 8 ng/mL (≈ 0.00377 to 0.0151 µM)
- toxicity, duodenal administration [4]: 1.05 mg/kg
- reporter activity, Gemcitabine-induced stress response [6]: significantly shift the reporter activity to the left
- drug and metabolites excreted by the bile ([7]; in vivo): Greater than 99%
- measurable unconjugated drug as share of administered quantity ([7]; oral administration): 7%
- time of second, longer-lasting peak ([7]; oral): about 1 hour
- time of third peak after dosing ([7]; oral): about 10 hours
- secretion of the angiogenesis factor VEGF [5]: inhibits
- tolerance in cancer patients ([8]; 0.5 mg/d i.v. for 4 d before surgery, 50 patients): well tolerated by all cancer patients
- patients taken off treatment for negative side effects ([8]; 1067 patients, up to 3 years): 0.7%
- reported cases in which therapy could be resumed ([8]; after a brief hiatus): > 95%
- doses producing typical intoxication symptoms ([8]; healthy individuals): above 4 mg p.o./d
- serum levels at the maximum toxic dose (MTD) (mice): about 518 (±121) ng/ml
- toxic serum concentration at day 1 (mice): about 518+121 ng/ml
- steady state serum level at which anti-tumor activity was observed (xenograft nude mouse model): about 50 ng/mL
- HIF-1α accumulation by L-mimosone ([9]; 200 μM L-mimosone, 18 h): eliminated HIF-1α accumulation
- HIF-1α accumulation by L-mimosone ([9]; at the low concentration tested): did not appear to have an effect

Compound: N.N.O=C([O-])C1(C(=O)[O-])CCC1.[Pt+2] [Carboplatin]
- cell death [6]: increases
- reporter activity [6]: increases

Compound: Nc1ccn([C@@H]2O[C@H](CO)[C@@H](O)C2(F)F)c(=O)n1 [Gemcitabine]
- reporter activity, Gemcitabine-induced stress response [6]: elevated reporter activity
- patients with clinical benefit ([10]; gemcitabine alone): 20-30%
- 1-year survival rate ([10]; human, in vivo): 18%
- patients alive at 1 year after starting therapy [1]: 1 in 5
- survival of the typical patient [1]: about 6 months
- patients alive at 1 year [11]: 1 in 25
- patients with symptom improvement for at least 1 month [11]: 1 in 4
- survival of the typical patient [11]: 4 months

Compound: CC(C)Cc1ccc(C(C)C(=O)O)cc1 (stereo not drawn) [Ibuprofen]
- reduction in incidence of breast tumors [12]: 40%
- reduction in multiplicity of breast tumors [12]: 52%

Compound: COc1cc2ncnc(Nc3ccc(F)c(Cl)c3)c2cc1OCCCN1CCOCC1 [Iressa]
- reporter activity [6]: reduction in reporter activity

Compound: C=C(C)[C@H]1CC=C(C)CC1 [Limonene]
- growth reduction [13]: approximately 50%

Compound: CN(C)C(=N)N=C(N)N [Metformin]
- hyperplastic and premalignant lesions ([14]; 8.6 in high-fat group): 1.8 lesions per hamster
- malignant lesions ([14]; drinking water for life, 50% in high-fat group): none were found

Compound: C=C(C)[C@@H]1CC=C(CO)CC1 [Perillyl alcohol]
- inhibition of RhoA prenylation [15]: 28%
- tumors completely regressed ([16]; hamster, in vivo): 16%
- growth of pancreatic tumors ([16]; versus controls): less than half that of controls
- inhibition of Ras prenylation [17]: 17%

Compound: CC[C@@]1(O)C(=O)OCc2c1cc1n(c2=O)Cc2cc3c([N+](=O)[O-])cccc3nc2-1 [Rubitecan, 9-nitrocamptothecin]
- nonresponders ([18]; 60 patients): 36.6%
- patients who responded favorably ([18]; 60 patients): 31.7%
- patients with stabilized disease ([18]; 60 patients): 31.7%
- survival ([18]; nonresponders): 6.8 months
- median survival ([18]; responders): 18.6 months
- median survival ([18]; stabilized disease): 9.7 months

Compound: Cn1c(=O)c2c(ncn2C)n(C)c1=O [caffeine]
- median duration of survival [19]: 5 months
- patients with objective responses [19]: 5.5%

Compound: CC(=O)O[C@@]12CO[C@@H]1C[C@H](O)[C@@]1(C)C(=O)[C@H](O)C3=C(C)[C@@H](OC(=O)[C@H](O)[C@@H](NC(=O)OC(C)(C)C)c4ccccc4)C[C@@](O)([C@@H](OC(=O)c4ccccc4)[C@H]21)C3(C)C [docetaxel, Docetaxel]
- median duration of response [20]: 5.1 months
- partial response [20]: 15%
- stable disease [20]: 38%
- complete regressions [21]: 80%

Compound: O=C1c2c(O)ccc(O)c2C(=O)c2c(NCCNCCO)ccc(NCCNCCO)c21 [mitoxanthrone, mitoxantrone]
- cell death [6]: increases
- reporter activity [6]: increases

Compound: CC(=O)O[C@H]1C(=O)[C@@]2(C)[C@H]([C@H](OC(=O)c3ccccc3)[C@]3(O)C[C@H](OC(=O)[C@H](O)[C@@H](NC(=O)c4ccccc4)c4ccccc4)C(C)=C1C3(C)C)[C@]1(OC(C)=O)CO[C@@H]1C[C@@H]2O [paclitaxel]
- cell death [6]: increases
- reporter activity [6]: increases

From patent US20070105790A1, “Pancreatic cancer treatment using Na+/K+ ATPase inhibitors” (Bionaut Pharmaceuticals, Inc., priority 2004, published 2007)
